Assays:
[1] = test system: rat basophile derived cell line RBL-2H3; experiment: Test for evaluating degranulation suppressing activity (β-hexosaminidase release); format: cell-based; conditions: for degranulation suppressing activity (percent degranulation): RBL-2H3 sensitized with anti DNP-IgE, stimulated with DNP-albumin, control group taken as 100%
Experimental: First, the rat basophile derived cell line RBL-2H3 was diluted with a DMEM medium (product of SIGMA) containing 10% fetal bovine serum (hereinafter referred to as FBS) to give a density of 2.5×10^5 cells/ml, dispensed on a 24-well culture plate in a volume of 1 ml/well, and cultured overnight at 37° C. under conditions of 5% CO2 and 100% humidity. After removing the culture supernatant, the cell surfaces were washed with 1 ml/well of a phosphate buffer solution (hereinafter referred to as PBS) and an anti DNP-IgE solution prepared by diluting mouse monoclonal anti-dinitrophenol (product of SIGMA) with a DMEM medium to give a concentration of 50 ng/ml was added in a volume of 500 μl/well, followed by incubation for 2 hours at 37° C. under conditions of 5% CO2 and 100% humidity. After the end of incubation, the anti DNP-IgE solution was removed and washing was done using 1.5 ml/well of a buffer solution containing 137 mM NaCl (product of nacalai tesque), 2.7 mM KCl (JUNSEI CHEMICAL), 1.8 Mm CaCl2.2H2O (JUNSEI CHEMICAL), 1 mM MgCl2. 6H2O (JUNSEI CHEMICAL), 5.6 mM glucose (Wako Pure Chemical Industries), 20 mM HEPES (Wako Pure Chemical Industries) and 0.1% BSA (the buffer solution being a modified Tyrode buffer which is hereinafter referred to as “MT buffer”); this procedure was repeated twice. Next, an MT buffer containing 0.5% of a chlorophyll, i.e., an authentic sample of chlorophyll a (product of DHI), an authentic sample of chlorophyll b (product of DHI), an authentic sample of chlorophyll c2 (product of DHI), or an authentic sample of chlorophyll d (purified from cyanobacteria adhering to surfaces of red algae, by referring to Non-Patent Documents 10 and 11, for example) was added in a volume of 490 μl/well and incubation was conducted for 10 minutes at 37° C. under conditions of 5% CO2 and 100% humidity. To a control group that would not undergo suppression of the degranulation reaction, an MT buffer containing 0.5% ethanol was added. After 10-min incubation, Albumin, dinitrophenyl (product of SIGMA) was added to give a concentration of 200 ng/ml and the mixture was stirred to homogeneity, followed by 30-min incubation at 37° C. under conditions of 5% CO2 and 100% humidity. After the end of incubation, the mixture was ice-cooled for 10 minutes to quench the reaction and 500 μl of the supernatant was recovered. To the cells from which the culture supernatant was recovered, Cell Lysate buffer (product of SIGMA) was added in a volume of 500 μl/well and thereafter an ultrasonic cell disrupter was used to form a homogeneous cell lysate which was recovered in a volume of 500 μl. The culture supernatant and the cell lysate were dispensed on a 96-well plate, each in a volume of 50 μl/well, and incubated at 37° C. for 5 minutes. After the end of incubation, an aqueous solution containing 100 mM citric acid and 3.3 mM p-nitrophenyl-2-acetoamido-2-deoxy-β-D-glucopyranoside (product of Wako Pure Chemical Industries) (the aqueous solution is hereinafter referred to as a “substrate solution”) was added in a volume of 100 μl/well and after thorough mixing, incubation was conducted at 37° C. for 25 minutes. After the end of incubation, an aqueous solution containing 2 M glycine (the aqueous solution is hereinafter referred to as a “reaction quencher”) was added in a volume of 100 μl/well and thorough mixing was conducted to quench the reaction; thereafter, a plate reader was used to measure the absorbance at 405 nm. Through this sequence of reactions, degranulation occurred and the activity of β-hexosaminidase contained in the granules was measured to calculate the proportion of granules released from the cells to the culture supernatant. […]

[2] = test system: rat basophile derived cell line RBL-2H3; experiment: Test for evaluating percent cell survival (WST-1); format: cell-based; conditions: RBL-2H3, 40 min incubation
Experimental: The rat basophile derived cell line RBL-2H3 diluted to the same concentration as in Example 1 was dispensed on a 96-well culture plate in a volume of 0.1 ml/well and cultured overnight at 37° C. under conditions of 5% CO2 and 100% humidity. After removing the culture supernatant, the cell surfaces were washed with 1 ml/well of PBS and then an MT buffer containing an authentic sample of chlorophyll c2 at the same concentrations by dry weight as in Example 1 was added in a volume of 100 μl/well and incubation was conducted for 40 minutes at 37° C. under conditions of 5% CO2 and 100% humidity. To a control group that would not undergo suppression of the degranulation reaction, an MT buffer containing 0.5% ethanol was added. After 40-min incubation, WST-1 reagent (product of DOJINDO) was added in a volume of […] and the mixture was incubated for 30 minutes at 37° C. under conditions of 5% CO2 and 100% humidity. After the end of incubation, the mixture was left to stand at room temperature for 10 minutes and then the absorbance at 450 nm was measured to evaluate the percent cell survival.

Row | Compound | degranulation suppressing activity (percent degranulation) [1] | percent cell survival (cytotoxicity) [2] | degranulation suppressing activity (percent degranulation) ([1]; listed as Fr. J) | concentration at which degranulation suppressing activity was already apparent ([1]; by dry weight, RBL-2H3, FIG. 1)
1 | C=Cc1c(C)c2cc3nc(c4c5[n-]c(cc6nc(cc1[n-]2)C(C)=C6CC)c(C)c5C(=O)[C@@H]4C(=O)OC)[C@@H](CCC(=O)OC/C=C(\C)CCC[C@H](C)CCC[C@H](C)CCCC(C)C)[C@@H]3C.[Mg+2] [chlorophyll a, reference compound] | no degranulation suppressing activity at all |  |  | 
2 | C=Cc1c(C)c2cc3nc(c4c5[n-]c(cc6nc(cc1[n-]2)C(C=O)=C6CC)c(C)c5C(=O)[C@@H]4C(=O)OC)[C@@H](CCC(=O)OC/C=C(\C)CCC[C@H](C)CCC[C@H](C)CCCC(C)C)[C@@H]3C.[Mg+2] [chlorophyll b, reference compound] | no degranulation suppressing activity at all |  |  | 
3 | C=Cc1c(C)c2[nH]c1=CC1=NC(=CC3=C(C)C4=C([O-])[C@H](C(=O)OC)C(=C5N=C(C=2)C(C)=C5/C=C/C(=O)[O-])C4=N3)C(CC)=C1C.[Mg+2] [chlorophyll c1] | found to exhibit the degranulation suppressing activity | neither the cell group treated with the authentic sample of chlorophyll c1 nor the cell group treated with the authentic sample of chlorophyll c3 was recognized to experience a drop in the percent cell survival |  | 
4 | C=CC1=C(C)C2=NC1=CC1=C(C)C3=C([O-])[C@H](C(=O)OC)C(=C4N=C(C=c5[nH]c(c(C=C)c5C)=C2)C(C)=C4/C=C/C(=O)[O-])C3=N1.[Mg+2] [chlorophyll c2] | exhibit the degranulation suppressing activity in a dose-dependent manner | none of the cell groups treated with the authentic sample of chlorophyll c2 experienced a drop in percent cell survival | found to have the evaluating degranulation suppressing activity | about 0.05 μg/ml
5 | C=CC1=C(C)C2=CC3=NC(=C4C5=NC(=C(C)C5=C([O-])[C@@H]4C(=O)OC)C=c4[nH]c(c(C(=O)OC)c4C=C)=CC1=N2)C(/C=C/C(=O)[O-])=C3C.[Mg+2] [chlorophyll c3] | found to exhibit the degranulation suppressing activity | neither the cell group treated with the authentic sample of chlorophyll c1 nor the cell group treated with the authentic sample of chlorophyll c3 was recognized to experience a drop in the percent cell survival |  | 
6 | CCC1=C(C)c2cc3[n-]c(cc4nc(c5c6[n-]c(cc1n2)c(C)c6C(=O)[C@@H]5C(=O)OC)[C@@H](CCC(=O)OC/C=C(\C)CCC[C@H](C)CCC[C@H](C)CCCC(C)C)[C@@H]4C)c(C)c3C=O.[Mg+2] [chlorophyll d, reference compound] | no degranulation suppressing activity at all |  |  | 
